# Source: US20240139333A1, “2,6-DICHLOROPHENYL ESTER COMPOUNDS AND USE THEREOF” (Fusion Pharmaceuticals Inc., priority 2021, published 2024)
# Tests used:
# [1] = Stability of Compound J at pH = 2; format: physicochemical; conditions: pH 2, 20° C.
# Protocol: To an HPLC vial was added a 0.2 mg/mL solution of Compound J dissolved in H2O (0.1% v/v TFA) at pH=2 and the stability was monitored by HPLC-MS at 20° C. over 16 hours. Timed aliquots at time (T)=0, 30, 60, 120, 180, 240, 480 and 960 minutes were taken and analyzed by HPLC-MS using elution method 4 at 214 nm (Table 9).
# [2] = Comparative active ester reactivity study with HOPO nucleophile; conditions: 1,2-HOPO 1 eq., 22±2° C.
# Protocol: (§1) General Experimental Protocol for Comparative Active Ester Reactivity Study with HOPO or HOA Nucleophiles
# (§2) To a 4 mL scintillation vial containing Compound A-E (in respective experiments; 1 eq.) was added a stir bar followed by 150 μL of HPLC grade acetonitrile. In another 4 mL scintillation vial containing a respective nucleophile (1 eq.) was added 280 μL HPLC grade water. The solutions were combined and allowed to stir at room temperature (22±2° C.) for 4 hours. Timed aliquots at time (T)=15, 30, 60, 120 and 240 minutes were taken and analyzed by HPLC-MS using elution method 1 (Table 1).
# [3] = Comparative active ester reactivity study with HOA nucleophile (benzhydroxamic acid); conditions: Benzhydroxamic Acid 1 eq., 22±2° C.
# Protocol: as §1, §2
# [4] = Comparative active ester reactivity study with HOA nucleophile (N-hydroxy-N-methylbenzamide); conditions: N-Hydroxy-N-methylbenzamide 1 eq., 22±2° C.
# Protocol: as §1, §2
# [5] = Nucleophilic reactivity study with L-Lysine; conditions: L-Lysine 5 equiv, 22±2° C.
# Protocol: General Experimental Protocol for Nucleophilic Reactivity Study with L-Lysine
# To a 4 mL scintillation vial containing Compound A-E (in respective experiments; 1 eq.) was added a stir bar followed by 70 μL of HPLC grade acetonitrile. In another 4 mL scintillation vial containing L-Lysine monohydrochloride (5 eq.) was added 130 μL HPLC grade water followed by diisopropylethylamine (5 eq.). The solutions were combined and allowed to stir at room temperature (22±2° C.). Timed aliquots at time (T)=15, 30, 60 and 120 minutes were taken and analyzed by HPLC-MS using elution method 1 (Table 2).
# pH stability study = format: physicochemical; conditions: 20° C.
# Protocol: To a 4 mL scintillation vial containing Compound A-E (in respective experiments; 0.8 mg) was added 4 mL of either a pH 3, pH 5 pH 7 or pH 9 buffer to create a 0.2 mg/mL solution. 2 mL of this solution was added to a 2 mL HPLC vial and placed in the auto sampler of an HPLC-MS at 20° C. Timed aliquots at time (T)=15, 30, 60, 120, 240 and 480 minutes were taken and analyzed by HPLC-MS using elution method 1 (Table 3). […]
# pH 3 Buffer: Citric acid/Na2HPO4 (79.45 mL 0.1 M-citric acid and 20.55 mL 0.2-Na2HPO4) pH 5 Buffer: Citric acid/Na2HPO4 (48.50 mL 0.1 M-citric acid and 51.50 mL 0.2-Na2HPO4) pH 7 Buffer: Citric acid/Na2HPO4 (17.65 mL 0.1 M-citric acid and 82.35 mL 0.2-Na2HPO4) pH 9 Buffer: Sodium Carbonate/Sodium Bicarbonate (10 mL 0.1 M-Na2CO3 and 90 mL 0.1-NaHCO3)
# [6] = Temperature stability study in H2O; format: physicochemical
# Protocol: 20° C.: To a 4 mL scintillation vial containing Compound A-E (in respective experiments; 0.8 mg) was added 4 mL of HPLC grade water to create a 0.2 mg/mL solution. 2 mL of this solution was added to a 2 mL HPLC vial and placed in the auto sampler of an HPLC-MS at 20° C. Timed aliquots at time (T)=15, 30, 60, 120, 240 and 480 minutes were taken and analyzed by HPLC-MS using elution method 1 (Table 4).
# 50° C.: To a 4 mL scintillation vial containing Compound A-E (in respective experiments; 0.8 mg) was added a stir bar followed by 4 mL of HPLC grade water to create a 0.2 mg/mL solution. The vial was capped and allowed to stir in a 50° C. oil bath for 8 hours. Timed aliquots at time (T) =15, 30, 60, 120, 240 and 480 minutes were taken and analyzed by HPLC-MS using elution method 1 (Table 4).
# DMSO stability study = format: physicochemical
# Protocol: To a 4 mL scintillation vial containing Compound A-E (in respective experiments; 4 mg) was added a stir bar followed by 500 μL of anhydrous dimethyl sulfoxide and was allowed to stir at room temperature (22±2° C.) for 4 hours. Timed aliquots at time (T)=15, 30, 60, 120 and 240 minutes were taken, dissolved in water to achieve 2% DMSO composition and analyzed by HPLC-MS using elution method 1 (Table 5).
smiles,measurement,setting,value
"CC(=O)N(O)CCCCCNC(=O)CCC(=O)N(O)CCCCCNC(=O)CCC(=O)N(O)CCCCCNC(=O)CCOCCOCCOCCOCCOCCOCCOCCOCCOCCOCCOCCOCCC(=O)Oc1c(Cl)cccc1Cl [Compound J, 2,6-Dichlorophenyl 1-{[5-(N-hydroxy-3-{8 5-(N-hydroxy-3-{[5-(N-hydroxyacetamido)pentyl]carbamoyl}propanamido)pentyl]carbamoyl}propanamido)pentylic carbamoyl}-3,6,9,12,15,18,21,24,27,30,33,36-dodecaoxanonatriacontan-39-oate]",% Compound J Remaining,[1]; 0 min,97.49%
same,% Compound J Remaining,[1]; 30 min,97.21%
same,% Compound J Remaining,[1]; 60 min,96.67%
same,% Compound J Remaining,[1]; 120 min,96.11%
same,% Compound J Remaining,[1]; 180 min,96.14%
same,% Compound J Remaining,[1]; 240 min,94.83%
same,% Compound J Remaining,[1]; 480 min,94.39%
same,% Compound J Remaining,[1]; 960 min,91.48%
"O=C(CCc1cccnc1)Oc1c(F)cccc1F [Compound B, 2,6-Difluorophenyl-3-(pyridin-3-yl)propanoate]",% Active Ester Remaining,[2]; 15 min,98.85%
same,% Active Ester Remaining,[2]; 30 min,96.23%
same,% Active Ester Remaining,[2]; 60 min,90.85%
same,% Active Ester Remaining,[2]; 120 min,84.98%
same,% Active Ester Remaining,[2]; 240 min,69.55%
same,% Active Ester Remaining,[3]; 15 min,81.80%
same,% Active Ester Remaining,[3]; 30 min,69.62%
same,% Active Ester Remaining,[3]; 60 min,56.57%
same,% Active Ester Remaining,[3]; 120 min,42.81%
same,% Active Ester Remaining,[3]; 240 min,28.60%
same,% Active Ester Remaining,[4]; 15 min,91.32%
same,% Active Ester Remaining,[4]; 30 min,84.96%
same,% Active Ester Remaining,[4]; 60 min,73.90%
same,% Active Ester Remaining,[4]; 120 min,56.72%
same,% Active Ester Remaining,[4]; 240 min,35.97%
same,% Active Ester Remaining,[5]; 15 min,0.20%
same,% Active Ester Remaining,[5]; 30 min,0%
same,% Remaining,"pH stability study; pH 3 buffer, 15 min",100%
same,% Remaining,"pH stability study; pH 3 buffer, 30 min",99.56%
same,% Remaining,"pH stability study; pH 3 buffer, 60 min",99.19%
same,% Remaining,"pH stability study; pH 3 buffer, 120 min",98.69%
same,% Remaining,"pH stability study; pH 3 buffer, 240 min",97.41%
same,% Remaining,"pH stability study; pH 3 buffer, 480 min",95.05%
same,% Remaining,"pH stability study; pH 5 buffer, 15 min",100%
same,% Remaining,"pH stability study; pH 5 buffer, 30 min",99.50%
same,% Remaining,"pH stability study; pH 5 buffer, 60 min",99.05%
same,% Remaining,"pH stability study; pH 5 buffer, 120 min",98.27%
same,% Remaining,"pH stability study; pH 5 buffer, 240 min",96.36%
same,% Remaining,"pH stability study; pH 5 buffer, 480 min",92.97%
same,% Remaining,"pH stability study; pH 7 buffer, 15 min",99.35%
same,% Remaining,"pH stability study; pH 7 buffer, 30 min",98.45%
same,% Remaining,"pH stability study; pH 7 buffer, 60 min",97.44%
same,% Remaining,"pH stability study; pH 7 buffer, 120 min",95.40%
same,% Remaining,"pH stability study; pH 7 buffer, 240 min",91.66%
same,% Remaining,"pH stability study; pH 7 buffer, 480 min",84.15%
same,% Remaining,"pH stability study; pH 9 buffer, 15 min",78.39%
same,% Remaining,"pH stability study; pH 9 buffer, 30 min",65.31%
same,% Remaining,"pH stability study; pH 9 buffer, 60 min",54.47%
same,% Remaining,"pH stability study; pH 9 buffer, 120 min",38.67%
same,% Remaining,"pH stability study; pH 9 buffer, 240 min",19.98%
same,% Remaining,"pH stability study; pH 9 buffer, 480 min",5.01%
same,% Remaining,"[6]; 20° C., 15 min",99.63%
same,% Remaining,"[6]; 20° C., 30 min",99.20%
same,% Remaining,"[6]; 20° C., 60 min",98.92%
same,% Remaining,"[6]; 20° C., 120 min",98.12%
same,% Remaining,"[6]; 20° C., 240 min",96.98%
same,% Remaining,"[6]; 20° C., 480 min",95.14%
same,% Remaining,"[6]; 50° C., 15 min",97.57%
same,% Remaining,"[6]; 50° C., 30 min",92.71%
same,% Remaining,"[6]; 50° C., 60 min",89.62%
same,% Remaining,"[6]; 50° C., 120 min",85.20%
same,% Remaining,"[6]; 50° C., 240 min",79.93%
same,% Remaining,"[6]; 50° C., 480 min",68.06%
same,% Active Ester Remaining in DMSO at 22 ± 2° C.,DMSO stability study; 15 min,99.89%
same,% Active Ester Remaining in DMSO at 22 ± 2° C.,DMSO stability study; 30 min,99.81%
same,% Active Ester Remaining in DMSO at 22 ± 2° C.,DMSO stability study; 60 min,99.79%
same,% Active Ester Remaining in DMSO at 22 ± 2° C.,DMSO stability study; 120 min,99.78%
same,% Active Ester Remaining in DMSO at 22 ± 2° C.,DMSO stability study; 240 min,99.46%
